For data set [1] the following is noted: from C=CCN1CCN(c2cc(F)ncc2NC(=O)c2ccnc(NCC(C)(O)CC=C)n2)CC1; rcm bond; 18-membered ring; Zhan 1B; ClCH2CH2Cl; 4.5 mM; 70.0 °C; 1.5 h.
For data set [2] the following is noted: rcm bond, 70.0 °C.
For a further data set, the target named is GSK3β (Homo sapiens, UniProt P49841). Nature of the data set: GSK3β kinase assay (Caliper LabChip3000, fluoresceinated peptide substrate). It is filed as biochemical. Particulars: first value of cell; 250 pM enzyme, 20 uM ATP, 20 hours room temperature; read-out: GSK3β/α (nM): GSK3β IC50. The procedure:
(§1) The kinase assay was performed in V-bottom 384-well plates. The final assay volume was 30 μl prepared from 15 μl additions of enzyme, substrates (fluoresceinated peptide FL-KRREILSRRP[ps]ERYR-NH2 and ATP) and test compounds in assay buffer (100 mM HEPES pH 7.4, 10 mM MgCl2, 25 mM Beta-Glycerolphosphate, 0.015% Brij35 and 0.25 mM DTT). The reaction was incubated at room temperature for 20 hours and terminated by adding 45 μl of 35 mM EDTA to each sample. The reaction mixture was analyzed on the Caliper LabChip3000 (Caliper, Hopkinton, Mass.) by electrophoretic separation of the unphosphorylated substrate and phosphorylated product. Inhibition data were calculated by comparison of the no enzyme control reactions for 100% inhibition and vehicle-only reactions for 0% inhibition. The final concentration of reagents in the assay were 250 pM GSK3α or GSK3β, 20 uM ATP, 1.5 uM FL-KRREILSRRP[ps]ERYR-NH2, and 1.6% DMSO. Dose response curves were generated to determine the concentration required to inhibit 50% of the kinase activity (IC50). Compounds were dissolved at 10 mM in dimethylsulfoxide (DMSO) and evaluated at eleven concentrations. IC50 values were derived by non-linear regression analysis.

Another data set addresses GSK3α (Homo sapiens, UniProt P49840). Nature of the data set: GSK3α kinase assay (Caliper LabChip3000, fluoresceinated peptide substrate). The class given is biochemical. Particulars: second value of cell; 250 pM enzyme, 20 uM ATP, 20 hours room temperature; read-out: GSK3β/α (nM): GSK3α IC50. How it is done:
as §1

Another data set relates to pTau. Nature of the data set: pTau assay. The class given is cell-based.

Several values for one entry are separate records, joined by “and”; a condition that tells them apart may be missing. Identical values can stand only once. Like-named read-outs stand apart in the source and are kept apart here.

GSK3β, sequence (P49841 whole entry, species assumed): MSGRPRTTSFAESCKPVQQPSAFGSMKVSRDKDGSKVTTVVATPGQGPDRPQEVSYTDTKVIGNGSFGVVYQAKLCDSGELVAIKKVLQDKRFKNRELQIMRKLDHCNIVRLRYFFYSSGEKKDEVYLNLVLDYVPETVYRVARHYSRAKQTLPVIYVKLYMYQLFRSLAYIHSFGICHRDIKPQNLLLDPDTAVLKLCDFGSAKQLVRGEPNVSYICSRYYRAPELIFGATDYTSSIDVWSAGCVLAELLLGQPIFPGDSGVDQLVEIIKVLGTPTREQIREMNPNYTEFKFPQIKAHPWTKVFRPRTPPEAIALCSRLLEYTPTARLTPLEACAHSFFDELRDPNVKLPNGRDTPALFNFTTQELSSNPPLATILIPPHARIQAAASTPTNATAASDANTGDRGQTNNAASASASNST
GSK3α, sequence (P49840 whole entry, species assumed): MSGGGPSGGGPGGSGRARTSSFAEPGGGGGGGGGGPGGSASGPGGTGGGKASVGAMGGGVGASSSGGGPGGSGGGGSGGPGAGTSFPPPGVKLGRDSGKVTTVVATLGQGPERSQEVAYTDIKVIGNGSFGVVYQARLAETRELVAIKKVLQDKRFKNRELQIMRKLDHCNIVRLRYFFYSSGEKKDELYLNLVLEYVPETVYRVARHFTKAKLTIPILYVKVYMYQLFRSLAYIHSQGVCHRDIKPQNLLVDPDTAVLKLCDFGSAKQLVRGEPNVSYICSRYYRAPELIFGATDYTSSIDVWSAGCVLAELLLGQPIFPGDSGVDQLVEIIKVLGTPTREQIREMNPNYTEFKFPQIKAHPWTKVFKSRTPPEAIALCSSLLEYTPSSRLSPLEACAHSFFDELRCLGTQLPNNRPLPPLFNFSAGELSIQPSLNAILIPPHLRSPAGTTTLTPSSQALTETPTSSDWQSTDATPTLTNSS

On to `CC1(O)CC=CCN2CCN(CC2)c2cc(F)ncc2NC(=O)c2ccnc(n2)NC1` (centres unmarked), for which the ring closure, yield after HPLC in data set [1] came to 37%.
In data set [2] (from C=CCCNc1nccc(C(=O)Nc2cnccc2OCCC=C)n1, 15-membered ring, Zhan 1B (50 mol%), ClCH2CH2Cl, 4.3 mM, 2.0 h), `O=C1Nc2cnccc2OCCC=CCCNc2nccc1n2` (mixture of isomers) [Example 8, 5-Oxa-3,12-diaza-1(4,2)-pyrimidina-4(3,4)-pyridinacyclododecaphan-8-en-2-one] yielded a ring closure, isolated yield of 46%. Also, the IC50 stood at 8.1 nM on GSK3β, 8.4 nM at GSK3α and 0.634 µM in the data set with pTau.
With `O=C1Nc2cnc(F)cc2N2CCN(CC=CCC(O)C3(CC3)Nc3nccc1n3)CC2` (mixture of isomers) [Example 34, (E)-6′-fluoro-8′-hydroxyspiro[cyclopropane-1,7′-3,6-diaza-5(4,2)-pyrimidina-1(1,4)-piperazina-2(4,3)-pyridinacyclododecaphanen]-10′-en-4′-one], the ring closure, isolated yield in data set [2] (from C=CCC(O)C1(Nc2nccc(C(=O)Nc3cnc(F)cc3N3CCN(CC=C)CC3)n2)CC1, 18-membered ring, Zhan 1B, 1.5 h) stood at 54%. Also, the IC50 at GSK3β amounted to 1270 nM; on GSK3α, 2000 nM; in the data set with pTau, 9.97 µM.
`CC1(O)CC=CCCOc2ccncc2NC(=O)c2ccnc(n2)NC1` (mixture of isomers) [Example 41, (E)-11-Hydroxy-11-methyl-5-oxa-3,13-diaza-1(4,2)-pyrimidina-4(3,4)-pyridinacyclotridecaphan-8-en-2-one] had a ring closure, isolated yield in data set [2] (from C=CCCOc1ccncc1NC(=O)c1ccnc(NCC(C)(O)CC=C)n1, 16-membered ring, Zhan 1B, ClCH2CH2Cl, 4.33 mM, 1.5 h) of 39%. Further, the figures for the IC50 on GSK3β, at GSK3α and in the data set with pTau were 2.7 nM, 4.7 nM and 0.266 µM, respectively.
In the case of `O=C1Nc2cnc(F)cc2N2CCN(CC=CCCC(O)CNc3nccc1n3)CC2` (single isomer, unassigned) [Example 28, (E)-2^6-fluoro-8-hydroxy-3,6-diaza-5(4,2)-pyrimidina-1(1,4)-piperazina-2(4,3)-pyridinacyclotridecaphan-11-en-4-one], the ring closure, isolated yield in data set [2] (from C=CCCC(O)CNc1nccc(C(=O)Nc2cnc(F)cc2N2CCN(CC=C)CC2)n1, 19-membered ring, Zhan 1B (30 mol%), ClCH2CH2Cl, 5.17 mM, 3.0 h) was 22% and 13%. Besides, the values for the IC50 at GSK3β, on GSK3α and in the data set with pTau were 14.7 nM, 17.5 nM and 1.87 µM, respectively.

The values are drawn from US11053258B2, “Pyrimidine carboxamides as GSK-3 inhibitors” (BRISTOL-MYERS SQUIBB COMPANY, priority 2016, dated 2021).
